Test results published in patent US6361780B1, “Microporous drug delivery system” (Cardiac Pacemakers, Inc., priority 1998, dated 2002).

Experiment: In vitro elution testing of drug-loaded collars (light absorption of solution at 242 nm)
Assay type: physicochemical
Conditions: dried collar loaded from aqueous solution, then immersed in water
Protocol: FIG. 3 is a graph of radiation absorption (at 242 nm) versus time to measure the elution of dexamethasone acetate.
* denotes the use of an approximation during the calculation of values. […] The soaked collars were then dried for three hours and the delivered for elution testing. Elution testing was done by in vitro testing of the light absorption of a solution into which the collars were placed. The absorption at 242 nm was measured (a wavelength at which dexamethasone acetate strongly absorbs) and the release of the drug noted by increasing levels of absorbance, as shown in FIG. 3. […] Pore size would be estimated by taking the largest linear dimensions within each of the open areas and using that linear value as the largest dimension for that pore.
The rate of release from the collars is intended to be highly tailored to the specific ultimate use intended for the catheter or lead. The leads which may be used include traditional leads such as cardiac leads, but may also include other leads such as leads to organs that produce enzymes and hormones (as in the electrically stimulated treatment for Parkinsonism to accelerate the natural production of L-dopa), in stimulating breathing (in the prevention of SIDS or control of sleep apnea), neurological leads, hearing related leads, tinitus suppression leads, and the like. […]

CC(=O)OCC(=O)[C@@]1(O)[C@H](C)C[C@H]2[C@@H]3CCC4=CC(=O)C=C[C@]4(C)[C@@]3(F)[C@@H](O)C[C@@]21C [dextramethasone acetate, dexamethasone acetate]
removal of drug from the pores on immersion: removed from the pores over time
